For 1 compound, IC50 results are on record in paper PMC9043826, “Dalpulapans A–E from the roots of Dalbergia stipulacea” (RSC Advances, 2021).

Holding throughout (type): cell-based
Experiment [1] has as its system HeLa (cervical cancer cells). As to the kind of experiment: MTT cytotoxicity assay against HeLa cells. The following applies: Homo sapiens. Here is the method:
(§1) All isolated compounds, except 12, were evaluated for cytotoxicity against A549 (lung cancer cells), HeLa (cervical cancer cells) and Vero cells using the MTT assay.
(§2) MTT (3-(4,5-dimethylthiazol-2-yl)-2,5-diphenyltetrazolium bromide) assay was performed to evaluate the cytotoxic effect of the compounds. The procedure has been explained in a previous report.[14] In brief, all cells were cultured in RPMI 1640 medium supplemented with 10% fetal bovine serum, penicillin (100 U mL^−1) and streptomycin (100 μg mL^−1) (Gibco-BRL, USA) and incubated at 37 °C in a humidified atmosphere of 5% CO2. For preliminary testing, cells were exposed to the selected compounds at a concentration of 100 μg mL^−1 for 24, 48 and 72 hours. […] Control groups were treated with a solvent (a mixture of DMSO and ethanol; 1 : 1). After incubation, the medium was replaced with 110 μL of fresh medium containing MTT (0.5 mg mL^−1 in PBS) (Sigma Chemical Co., St. Louis, MO, USA) and incubated for 2 h. […] The absorbance of formazan was measured with a microplate reader (Bio-Rad Laboratories, USA) at the wavelength of 550 nm using 655 nm as a reference wavelength. […] The percentage of viable cells which corresponds to the production of formazan was calculated as previously described (Kumnerdkhonkaen et al. 2018).% Cell viability = [sample (A550 − A655)/control (A550 − A655)] × 100
On the technique in general: Tetrazolium dyes change colour on reduction, which living cells bring about.

Experiment [2] concerns Vero cells (kidney of African green monkey cells; normal cells). As to the kind of experiment: MTT cytotoxicity assay against Vero (normal) cells. The following applies: Chlorocebus sabaeus. Here is the method:
as §1, §2

Another experiment deals with A549 (lung cancer cells). As to the kind of experiment: MTT cytotoxicity assay against A549 cells. The following applies: Homo sapiens. How it is done: as §1, §2

For the compound `CC(C)=CCC/C(C)=C/Cc1c(O)ccc2c1OC[C@H]1c3cc4c(cc3O[C@@H]21)OCO4` [Compound 6, R,R-velucarpin A], the IC50 in experiment [1] is 10.9 ± 0.42 µM; in experiment [2], 29.2 ± 1.16 µM; with A549 (lung cancer cells) it was 14.6 ± 1.31 µM.

By IC50 is commonly meant the concentration that gives 50% inhibition.
